Source: patent US20260015350A1, “AZAQUINAZOLINE PAN-KRAS INHIBITORS” (Mirati Therapeutics, Inc., priority 2022, published 2026)

Assays:
[1] = tested on: KRas-mediated phosphorylation of ERK in AsPC-1 cells; assay: Inhibition of KRas-mediated phosphorylation of ERK (Cisbio HTRF pERK), AsPC-1 cells; type: cell-based; settings: Homo sapiens, ASPC1, AsPC-1 cells; HTRF pERK
Summary of the method: (§1)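 H358, H727, H460 and AsPC-1 cells seeded at 6,000/well, treated 3 hrs with 10-dose 3-fold dilutions from 10 uM (0.8% DMSO); 0.2 uM trametinib as min control. Lysed 40 min at 4° C; lysate incubated 2 hrs at room temperature with d2/cryptate antibodies, HTRF read.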

KRas^G12C = biological target: T1, KRas^G12C (Homo sapiens, UniProt P01116, G12C); assay: KRas binding assay (TR-FRET tracer displacement), KRas G12C; settings: TR-FRET tracer displacement, KRas G12C
T1 construct: Biotinylated KRas (corresponding to amino acids 1-169, produced at Accelegan Inc.); biotin (biotinylated); purchased Accelegan Inc

[2] = tested on: KRas-mediated phosphorylation of ERK in H727 cells; assay: Inhibition of KRas-mediated phosphorylation of ERK (Cisbio HTRF pERK), H727 cells; type: cell-based; settings: Homo sapiens, NCI-H727, H727 cells; HTRF pERK
Summary of the method: as §1

[3] = tested on: KRas-mediated phosphorylation of ERK in MKN1 cells; assay: Inhibition of KRas-mediated phosphorylation of ERK (Cisbio HTRF pERK), MKN1 cells; type: cell-based; settings: Homo sapiens, MKN-1
Summary of the method: (§2)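 Phospho-ERK is quantified by HTRF with the Advanced pERK kit. Cells go in at 6,000/well in RPMI plus 10% FBS overnight at 37° C. under 5% CO2, with a 4-hour covered room-temperature incubation ahead of the read.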

KRas^G12V = biological target: T2, KRas^G12V (Homo sapiens, UniProt P01116, G12V); assay: KRas binding assay (TR-FRET tracer displacement), KRas G12V
T2 construct: Biotinylated KRas (corresponding to amino acids 1-169, produced at Accelegan Inc.); biotin (biotinylated); purchased Accelegan Inc

[4] = tested on: KRas-mediated phosphorylation of ERK in H460 cells; assay: Inhibition of KRas-mediated phosphorylation of ERK (Cisbio HTRF pERK), H460 cells; type: cell-based; settings: Homo sapiens, NCI-H460, HTRF pERK
Summary of the method: as §1

KRas^WT = biological target: T3, KRas^WT (Homo sapiens, UniProt P01116); assay: KRas binding assay (TR-FRET tracer displacement), KRas WT; settings: TR-FRET tracer displacement, KRas WT
T3 construct: Biotinylated KRas (corresponding to amino acids 1-169, produced at Accelegan Inc.); biotin (biotinylated); purchased Accelegan Inc

[5] = tested on: KRas-mediated phosphorylation of ERK in HCT116 cells; assay: Inhibition of KRas-mediated phosphorylation of ERK (Cisbio HTRF pERK), HCT116 cells; type: cell-based; settings: Homo sapiens, HCT-116, HTRF pERK
Summary of the method: (§3)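 Cells were seeded at 6,000 per well and treated for 3 hrs with compound in a 10-dose, 3-fold series from 10 uM (0.8% final DMSO), with 0.2 uM Trametinib as Min control. Lysates made at 4° C over 40 mins were incubated 2 hrs at room temperature with d2- and Cryptate-labelled antibodies, then read by HTRF.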

[6] = tested on: KRas-mediated phosphorylation of ERK in A549 cells; assay: Inhibition of KRas-mediated phosphorylation of ERK (Cisbio HTRF pERK), A549 cells; type: cell-based; settings: Homo sapiens, HTRF pERK
Summary of the method: as §3

[7] = tested on: KRas-mediated phosphorylation of ERK in PSN1 cells; assay: Inhibition of KRas-mediated phosphorylation of ERK (Cisbio HTRF pERK), PSN1 cells; type: cell-based; settings: Homo sapiens
Summary of the method: as §2

[8] = tested on: KRas-mediated phosphorylation of ERK in H358 cells; assay: Inhibition of KRas-mediated phosphorylation of ERK (Cisbio HTRF pERK), H358 cells; type: cell-based; settings: Homo sapiens, NCI-H358, HTRF pERK
Summary of the method: as §1

KRas^G12S = biological target: T4, KRas^G12S (Homo sapiens, UniProt P01116, G12S); assay: KRas binding assay (TR-FRET tracer displacement), KRas G12S; settings: TR-FRET tracer displacement, KRas G12S
T4 construct: Biotinylated KRas (corresponding to amino acids 1-169, produced at Accelegan Inc.); biotin (biotinylated); purchased Accelegan Inc

KRas^G12D = biological target: T5, KRas^G12D (Homo sapiens, UniProt P01116, G12D); assay: KRas binding assay (TR-FRET tracer displacement), KRas G12D
T5 construct: Biotinylated KRas (corresponding to amino acids 1-169, produced at Accelegan Inc.); biotin (biotinylated); purchased Accelegan Inc
T5 sequence (P01116 1-169 isoform P01116-2 G12D): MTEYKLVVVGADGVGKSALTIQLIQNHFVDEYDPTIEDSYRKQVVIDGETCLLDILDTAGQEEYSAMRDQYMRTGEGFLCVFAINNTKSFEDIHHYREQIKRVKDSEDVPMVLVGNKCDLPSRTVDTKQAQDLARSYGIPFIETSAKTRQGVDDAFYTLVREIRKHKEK

T1 sequence (P01116 1-169 isoform P01116-2 G12C): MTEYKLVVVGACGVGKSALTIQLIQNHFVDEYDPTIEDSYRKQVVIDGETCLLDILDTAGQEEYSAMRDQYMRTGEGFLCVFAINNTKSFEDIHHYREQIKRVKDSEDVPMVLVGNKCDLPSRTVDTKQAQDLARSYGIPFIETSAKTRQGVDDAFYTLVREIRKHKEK
T2 sequence (P01116 1-169 isoform P01116-2 G12V): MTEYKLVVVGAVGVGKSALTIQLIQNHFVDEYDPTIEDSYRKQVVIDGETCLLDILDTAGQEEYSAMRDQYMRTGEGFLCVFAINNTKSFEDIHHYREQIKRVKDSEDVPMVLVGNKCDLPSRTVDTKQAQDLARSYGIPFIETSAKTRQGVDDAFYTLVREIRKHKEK
T3 sequence (P01116 1-169 isoform P01116-2): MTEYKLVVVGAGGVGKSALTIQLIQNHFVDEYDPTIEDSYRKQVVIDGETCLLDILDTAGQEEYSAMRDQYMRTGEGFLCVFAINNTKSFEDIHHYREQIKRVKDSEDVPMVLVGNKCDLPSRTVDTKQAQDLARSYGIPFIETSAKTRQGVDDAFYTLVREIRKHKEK
T4 sequence (P01116 1-169 isoform P01116-2 G12S): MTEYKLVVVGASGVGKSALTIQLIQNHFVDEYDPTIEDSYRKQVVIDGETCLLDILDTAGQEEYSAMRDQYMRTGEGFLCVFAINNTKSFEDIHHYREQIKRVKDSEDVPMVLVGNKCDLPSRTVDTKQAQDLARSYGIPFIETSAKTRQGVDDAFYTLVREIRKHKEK

Compound | IC50 [1] [nM] | IC50 (KRas^G12C) [nM] | IC50 [2] [nM] | IC50 [3] [nM] | IC50 (KRas^G12V) [nM] | IC50 [4] [nM] | IC50 (KRas^WT) [nM] | IC50 [5] [nM] | IC50 [6] [nM] | IC50 [7] [nM] | IC50 [8] [nM] | IC50 (KRas^G12S) [nM] | IC50 (KRas^G12D) [nM]
CCc1c(F)ccc2cc(O)cc(-c3ncc4c(N5CCCn6nc(C(=O)N(C)C)cc6C5)nc(OCC56CCCN5C/C(=C\F)C6)nc4c3F)c12 (centres unmarked) [Example 795, (Z)-5-(7-(8-ethyl-7-fluoro-3-hydroxynaphthalen-1-yl)-8-fluoro-2-((2-(fluoromethylene)tetrahydro-1H-pyrrolizin-7a(5H)-yl)methoxy)pyrido[4,3-d]pyrimidin-4-yl)-N,N-dimethyl-5,6,7,8-tetrahydro-4H-pyrazolo[1,5-a][1,4]diazepine-2-carboxamide] | 2 | < 2 | 11 | 4 | < 2 | 28 | < 2 | 130 | 41 | 4790 | 4 | < 2 | < 2
CCc1c(F)ccc2cc(O)cc(-c3ncc4c(N5CCC[C@]6(C5)NC(=O)NC6=O)nc(OCC56CCCN5C/C(=C\F)C6)nc4c3F)c12 (stereo partly drawn) [Example 794, (5R)-7-(7-(8-ethyl-7-fluoro-3-hydroxynaphthalen-1-yl)-8-fluoro-2-(((Z)-2-(fluoromethylene)tetrahydro-1H-pyrrolizin-7a(5H)-yl)methoxy)pyrido[4,3-d]pyrimidin-4-yl)-1,3,7-triazaspiro[4.5]decane-2,4-dione] | 32 | < 2 | 27 | 1 | < 2 | 6 | < 2 | 26 | 12 | 37 | 5 | < 2 | < 2
CCc1c(F)ccc2cc(O)cc(-c3ncc4c(N5CCC[C@@](C)(O)C5)nc(OC[C@@]56CCCN5CC(=C(F)F)C6)nc4c3F)c12 (single isomer, unassigned) [Example 918] | 3 | < 2 | 17 | 1 | < 2 | 5 | < 2 | 12 | 4 | 490 | 3 | < 2 | < 2
C[C@@H]1C[C@@H]1c1c(Cl)cc(O)cc1-c1ncc2c(N3C[C@@H]4C[C@H](C3)[C@H](O)C4)nc(OC[C@@]34CCCN3C[C@H](F)C4)nc2c1F (stereo in doubt) [Example 920, (1R,5R,6R)-3-(7-(3-chloro-5-hydroxy-2-(cis-2-methylcyclopropyl)phenyl)-8-fluoro-2-(((2R,7aS)-2-fluorotetrahydro-1H-pyrrolizin-7a(5H)-yl)methoxy)pyrido[4,3-d]pyrimidin-4-yl)-3-azabicyclo[3.2.1]octan-6-ol] | 77 | < 2 | 42 | 4 | < 2 | 15 | 2 | 44 | 19 | 2060 | 12 | < 2 | 4
CCc1c(F)ccc2cc(O)cc(-c3ncc4c(N5C[C@@H]6C[C@H](C5)[C@H](O)C6)nc(OCC56CCCN5C/C(=C\F)C6)nc4c3F)c12 (stereo partly drawn) [Example 793, (1R,5R,6R)-3-(7-(8-ethyl-7-fluoro-3-hydroxynaphthalen-1-yl)-8-fluoro-2-(((Z)-2-(fluoromethylene)tetrahydro-1H-pyrrolizin-7a(5H)-yl)methoxy)pyrido[4,3-d]pyrimidin-4-yl)-3-azabicyclo[3.2.1]octan-6-ol] | 3 | < 2 | 3 | 0.3 | < 2 | 2 | < 2 | 9 | 1 | 246 | 1 | < 2 | < 2
